Experiments:
[1] = system: beta-amyloid peptides 1-40 and 1-42, U-343 and SH-SY5Y cells; test: Beta-amyloid ELISA, secreted beta-amyloid peptides in conditioned medium; format: cell-based; conditions: Homo sapiens; inhibitor 20 μM, 24 hours; untreated = 100%; FIG. 2: Abeta 1-42, SH-SY5Y cells; read-out: Extracellular Abeta-concentration % of control
Experimental: (§1) The human glioma cell line, U-343 and the human neuroblastoma cell line, SH-SY5Y were maintained in Dulbecco's modified Eagle's medium (DMEM) containing 10% fetal bovine serum (Gibco BRL, Karlsruhe, Germany) and incubated at 37° C. in a 5% CO2 atmosphere. Culture media contained in general 60 μg/ml gentamycin (Gibco BRL, Karlsruhe, Germany).
To quantify intracellular and extracellular concentrations of beta-amyloid peptides, 1-40 and 1-42, U-343 and SH-SY5Y cells were cultured in 6 well plates (1.5×10^6 cells/well) and treated with specific PEP inhibitors (20 μM each) for 24 hours. For quantitation of secreted beta-amyloid peptides the conditioned medium was collected and concentrated by lyophylisation. Likewise, after determination of the cell numbers/well (casy cell counter I, Schärfe System, Reutlingen, Germany), cells were lyzed with cell extraction buffer (Biosource, Solingen, Germany) according to the manufacturer's protocol. The protein concentration was determined by the method of Bradford (1976). Aliquots of 100 μl were used to quantify beta-amyloid peptides 1-40 and 1-42 in quadruplicate by ELISA (IBL, Hamburg, Germany) following the manufacturer's instructions. All obtained intracellular and extracellular concentrations were normalized to cell numbers and protein concentration, respectively.
For the calculation of the concentration of beta-amyloid peptides 1-40 and 1-42 in the cell culture medium after PEP-inhibitor treatment, the basal concentration of beta-amyloid peptides 1-40 and 1-42 in the cell culture medium of untreated cell samples was set to 100%. The results of the measurement of the concentration of beta-amyloid peptides 1-40 and 1-42 with PEP-inhibitor treated cells are presented as % of the untreated cell samples.

[2] = system: basal secretion of IL-6, human glial U-343 cells; test: IL-6 ELISA, basal secretion of IL-6 into conditioned medium; format: cell-based; conditions: inhibitor 20 μM, 24 hours, serum-free medium, untreated = 100%, read-out: Extracellular IL-6 concentration, % of untreated cells
Experimental: To analyze basal secretion of IL-6, human glial U-343 cells were cultured in 6 well plates (1.5×10^6 cells/well, Greiner) and treated with specific PEP inhibitors as indicated (20 μM each) for 24 hours in serum-free D-MEM medium (Invitrogen). Aliquots of 40 μl conditioned medium were used to quantify the amount of secreted IL-6 by an human-specific IL-6 ELISA (Biosource) following the manufacturer's instructions. All data were obtained in quadruplicate. For the calculation of the IL-6 concentration in the cell culture medium after PEP-inhibitor treatment, the basal IL-6 concentration of the cell culture medium of untreated cell samples was set to 100%. The results of the measurement of the IL-6 concentration with PEP-inhibitor treated cells are presented as % of the untreated cell samples.
as §1

[3] = molecular target: T1, Recombinant human prolyl oligopeptidase (Homo sapiens, UniProt P48147); test: Determination of IC50- and Ki-values of PEP-inhibitors, chromogenic substrate Cbz-Gly-L-Pro-pNA; format: biochemical; conditions: for Ki: 4 substrate and 7 inhibitor concentrations, competitive inhibition, pH 7.6, 30° C.; for IC50 / IC50 PEP (M): substrate 0.15 mM, HEPES buffer pH 7.6, 30° C., n.i. means no inhibition
T1 construct: made in house; host or cells: E. coli
T1 sequence (P48147 1-710): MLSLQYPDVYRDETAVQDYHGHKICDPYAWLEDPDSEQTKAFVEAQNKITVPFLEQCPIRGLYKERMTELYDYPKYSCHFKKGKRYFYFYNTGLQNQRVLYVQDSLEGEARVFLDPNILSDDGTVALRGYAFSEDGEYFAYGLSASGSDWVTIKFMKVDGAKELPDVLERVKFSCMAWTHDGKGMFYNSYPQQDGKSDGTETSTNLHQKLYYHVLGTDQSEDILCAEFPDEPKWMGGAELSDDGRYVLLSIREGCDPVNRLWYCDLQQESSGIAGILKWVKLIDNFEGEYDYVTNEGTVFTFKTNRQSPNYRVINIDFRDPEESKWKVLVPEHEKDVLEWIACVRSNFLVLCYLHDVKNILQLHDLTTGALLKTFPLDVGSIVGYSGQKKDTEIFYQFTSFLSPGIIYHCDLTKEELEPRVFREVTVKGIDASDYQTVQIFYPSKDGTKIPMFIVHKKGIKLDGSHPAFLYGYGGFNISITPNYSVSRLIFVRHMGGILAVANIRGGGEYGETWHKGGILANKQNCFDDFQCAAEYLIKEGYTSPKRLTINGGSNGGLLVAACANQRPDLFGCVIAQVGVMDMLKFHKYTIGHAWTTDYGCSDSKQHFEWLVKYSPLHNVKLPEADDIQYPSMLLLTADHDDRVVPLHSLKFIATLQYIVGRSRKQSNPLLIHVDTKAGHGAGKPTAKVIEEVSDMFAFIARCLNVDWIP
Experimental: Recombinant human prolyl oligopeptidase was used for measurement. Recombinant expression was performed in E. coli under standard conditions as described elsewhere in the state of the art.
For activity measurements the chromogenic substrate Cbz-Gly-L-Pro-pNA was used in HEPES buffer pH 7.6 containing 50 mM HEPES, 200 mM NaCl, 1 mM EDTA, 1 mM DTT, 0.006% Brij35. Measurements were carried out at 30° C. Release of pNA were monitored continuously at 405 nm.
IC50 values were calculated using non-linear regression to a 4-parameter equation (Prism 4.0, GraphPad).
For Ki determination 4 substrate (0.15 mM, 0.08 mM 0.04 mM, 0.02 mM) and 7 inhibitor concentrations in an appropriate range were used. Calculations were performed by multiple non-linear regression analysis to the equation for competitive inhibition using GraFit 5.0 Software (Erithacus Software).

`O=C(c1nc2ccccc2s1)[C@@H]1CCCN1C(=O)OCc1ccccc1` [Example 1, 2-[Cbz-L-Pro]Benzothiazole] was tested, and the activity at 20 µM [1] was 155%, the activity at 20 µM [2] was 40% and the Ki [3] was 0.98 µM. It also gave an IC50 [3] of 7 µM.

`O=C(N[C@@H](Cc1ccccc1)C(=O)c1nc2ccccc2s1)OCc1ccccc1` [Example 2, 2-[Cbz-L-Phe]Benzothiazole] showed an activity at 20 µM [1] of 295%, an activity at 20 µM [2] of 44% and an IC50 [3] of over 100 µM.

`O=C(N[C@@H](Cc1ccccc1)C(=O)c1cccs1)OCc1ccccc1` [Example 3, 2-[Cbz-L-Phe]Thiophene] was tested, and the activity at 20 µM [1] was 339%, the activity at 20 µM [2] was 23% and the IC50 [3] was 1 µM.

With `O=C(N[C@H](Cc1ccccc1)C(=O)c1nccs1)OCc1ccccc1` [Example 4, 2-[Cbz-D-Phe]Thiazole] the activity at 20 µM [1] was 172%, the activity at 20 µM [2] was 44% and the “IC50 PEP (M)” value [3] was “n.i”.

Compound `O=C(N[C@@H](Cc1ccccc1)C(=O)c1nccs1)OCc1ccccc1` [Example 5, 2-[Cbz-L-Phe]Thiazole] has an activity at 20 µM [1] of 193%, an activity at 20 µM [2] of 29% and a Ki [3] of 0.00115 µM. The IC50 [3] was 0.0012 µM.

With `C[C@H](NC(=O)OCc1ccccc1)C(=O)c1nc2ccccc2s1` [Example 6, 2-[Cbz-L-Ala]Benzothiazole] the activity at 20 µM [1] was 114%, the activity at 20 µM [2] was 36% and the IC50 [3] was 4.5 µM.

For `O=C(N[C@@H](Cc1ccccc1)C(=O)c1ccccn1)OCc1ccccc1` [Example 7, 2-[Cbz-L-Phe]Pyridine], the activity at 20 µM [1] was 236%, the activity at 20 µM [2] was 31% and the IC50 [3] was 39 µM.

With `O=C(N[C@@H](Cc1ccccc1)C(=O)c1cc2ccccc2s1)OCc1ccccc1` [Example 8, 2-[Cbz-L-Phe]Benzo[b]thiophene] the activity at 20 µM [1] was 310%, the activity at 20 µM [2] was 27% and the “IC50 PEP (M)” value [3] was “n.i”.

Work on `O=C(N[C@@H](Cc1ccccc1)C(=O)c1ccccc1)OCc1ccccc1` [Example 9, Cbz-L-Phe-Benzene] yielded an activity at 20 µM [1] of 330%, an activity at 20 µM [2] of 18% and a Ki [3] of 1.6 µM. The IC50 [3] was 5.2 µM.

`C[C@H](NC(=O)OCc1ccccc1)C(=O)c1nccs1` [Example 10, 2-[Cbz-L-Ala]Thiazole] gave an activity at 20 µM [1] of 107%, an activity at 20 µM [2] of 78% and a Ki [3] of 2.3 µM. The IC50 [3] was 7.1 µM.

`CC(C)(C)OC(=O)N[C@@H](Cc1ccc([N+](=O)[O-])cc1)C(=O)c1nccs1` [Example 11, 2-[Boc-L-(p-NO2)Phe]Thiazole] showed an activity at 20 µM [1] of 178%, an activity at 20 µM [2] of 62% and an IC50 [3] of 25 µM.

`CC(C)(C)OC(=O)N[C@@H](Cc1ccc([N+](=O)[O-])cc1)C(=O)c1ccco1` [Example 12, 2-[Boc-L-(p-NO2)Phe]Furan] showed an activity at 20 µM [1] of 166%, an activity at 20 µM [2] of 37% and an IC50 [3] of 14 µM.

For `C=CCOC(=O)N[C@@H](Cc1ccccc1)C(=O)c1nc2ccccc2s1` [Example 13, 2-[Aloc-L-Phe]Benzothiazole], the activity at 20 µM [1] was 106%, the activity at 20 µM [2] was 69% and the “IC50 PEP (M)” value [3] was “n.i”.

Compound `C=CCOC(=O)N[C@@H](Cc1ccccc1)C(=O)c1nccs1` [Example 14, 2-[Aloc-L-Phe]Thiazole] has an activity at 20 µM [1] of 115% and an activity at 20 µM [2] of 67%.

`C=CCOC(=O)N[C@@H](Cc1ccccc1)C(=O)c1ccco1` [Example 15, 2-[Aloc-L-Phe]Furan] showed an activity at 20 µM [1] of 116%, an activity at 20 µM [2] of 78% and an IC50 [3] of 10 µM.

`CC(C)(C)OC(=O)N[C@@H](Cc1c[nH]c2ccccc12)C(=O)c1nc2ccccc2s1` [Example 16, 2-[Boc-L-Trp]Benzothiazole] was tested, and the activity at 20 µM [1] was 177%, the activity at 20 µM [2] was 23% and the IC50 [3] was 40 µM.

In the case of `CC(C)(C)OC(=O)N[C@@H](Cc1c[nH]c2ccccc12)C(=O)c1nccs1` [Example 17, 2-[Boc-L-Trp]Thiazole], the activity at 20 µM [1] is reported as 143%, the activity at 20 µM [2] is reported as 38% and the IC50 [3] is reported as 94 µM.

`CC(C)(C)OC(=O)N[C@@H](Cc1c[nH]c2ccccc12)C(=O)c1ccco1` [Example 18, 2-[Boc-L-Trp]Furan] gave an activity at 20 µM [1] of 163%, an activity at 20 µM [2] of 24% and an IC50 [3] of 14 µM.

`O=C(/C=C/c1ccccc1)N[C@@H](Cc1ccccc1)C(=O)c1nccs1` [Example 19, 2-[Cinnamoyl-L-Phe]Thiazole] was tested, and the activity at 20 µM [1] was 230%, the activity at 20 µM [2] was 58% and the “IC50 PEP (M)” value [3] was “n.i”.

In the case of `CC(C)C[C@H](NC(=O)OC(C)(C)C)C(=O)c1nc2ccccc2s1` [Example 20, 2-[Boc-L-Leu]Benzothiazole], the activity at 20 µM [1] is reported as 375% and the activity at 20 µM [2] is reported as 63%.

`CC(C)(C)OC(=O)N[C@@H](Cc1ccc([N+](=O)[O-])cc1)C(=O)c1nc2ccccc2s1` [Example 21, 2-[Boc-L-(p-NO2)Phe]Benzothiazole] was tested, and the activity at 20 µM [1] was 311%, the activity at 20 µM [2] was 96% and the “IC50 PEP (M)” value [3] was “n.i”.

`CC(C)(C)OC(=O)N[C@@H](Cc1ccc(I)cc1)C(=O)c1ccco1` [Example 22, 2-[Boc-L-(p-Iodo)Phe]Furan] was tested, and the activity at 20 µM [1] was 232%, the activity at 20 µM [2] was 50% and the “IC50 PEP (M)” value [3] was “n.i”.

For `CC(C)(C)OC(=O)N[C@@H](Cc1ccc(I)cc1)C(=O)c1nccs1` [Example 23, 2-[Boc-L-(p-Iodo)Phe]Thiazole], the activity at 20 µM [1] was 210%, the activity at 20 µM [2] was 41% and the “IC50 PEP (M)” value [3] was “n.i”.

Work on `CC(C)(C)OC(=O)N1CCC[C@H]1C(=O)c1nc2ccccc2s1` [Example 24, 2-[Boc-L-Pro]Benzothiazole] yielded an activity at 20 µM [1] of 136% and an activity at 20 µM [2] of 26%.

Compound `CC(C)(C)OC(=O)N1CCC[C@H]1C(=O)c1nccs1` [Example 25, 2-[Boc-L-Pro]Thiazole] has an activity at 20 µM [1] of 111%, an activity at 20 µM [2] of 59% and a Ki [3] of 2.3 µM. The IC50 [3] was 7.3 µM.

`CC(C)(C)OC(=O)N[C@@H](Cc1ccccc1)C(=O)c1nccs1` [Example 26, 2-[Boc-L-Phe]Thiazole] was tested, and the activity at 20 µM [1] was 168%, the activity at 20 µM [2] was 66% and the Ki [3] was 52 µM. The IC50 [3] was 77 µM.
